{"source": "patent US20240401144A2", "about": "“PRIMER-PROBE COMPOSITION, KIT, AND DETECTION METHOD” (ASCENTAWITS PHARMACEUTICALS, LTD., priority 2021, published 2024)", "key": {"[1]": {"test_system": "Jurkat, clone E6-1 cell line", "test": "Ex vivo cytotoxicity assay, leukemia cell lines", "format": "cell-based", "conditions": "Homo sapiens", "experimental": "(§1) Leukemia cell lines were suspended in RPMI medium supplemented with FBS (Biosera), while ALL PDX cells were cultured in QBSF medium (Quality Biological Inc.,) supplemented with Flt-3 ligand (20 ng/ml, BioNovus Life Sciences) or IL7 (10-20 ng/ml, Jomar Life Research). Cells were inoculated according to the optimal cell density and incubated for 3h or overnight (37° C., 5% CO2). PDX cells and leukemia cell lines were treated with OBI-3424 ([…]) or medium control for 48 or 72 h, respectively. Viability was determined using Alamar Blue reduction assay or Cell Titer-Glo Luminescent Cell Viability Assay (Promega). The half-maximal inhibitory concentration (IC50) was used to calculate the interpolation of nonlinear regression curves by GraphPad Prism 7 software.\n(§2) The expression levels of AKR1C3 protein was determined by Western blot analysis. The ex vivo cytotoxicity of OBI-3424 was determined using CellTiter-Glo assay and calculated as 50% maximum inhibitory concentration (IC50)."}, "P116 cell line": {"test_system": "P116 cell line", "test": "Ex vivo cytotoxicity assay, leukemia cell lines", "format": "cell-based", "conditions": "Homo sapiens", "experimental": "as §1, §2"}, "P31/FUJ cell line": {"test_system": "P31/FUJ cell line", "test": "Ex vivo cytotoxicity assay, leukemia cell lines", "format": "cell-based", "conditions": "Homo sapiens; Table 5: P31/FUJ, AML, 72 h; AKR1C3 expression Low", "experimental": "as §1, §2"}, "NOMO-1 cell line": {"test_system": "NOMO-1 cell line", "test": "Ex vivo cytotoxicity assay, leukemia cell lines", "format": "cell-based", "conditions": "Homo sapiens, AKR1C3 expression Medium", "experimental": "as §1, §2"}, "Kasumi-1 cell line": {"test_system": "Kasumi-1 cell line", "test": "Ex vivo cytotoxicity assay, leukemia cell lines", "format": "cell-based", "conditions": "Homo sapiens; Table 5: Kasumi-1, AML, 72 h; AKR1C3 expression Low", "experimental": "as §1, §2"}, "K-562 cell line": {"test_system": "K-562 cell line", "test": "Ex vivo cytotoxicity assay, leukemia cell lines", "format": "cell-based", "conditions": "Homo sapiens, K562; Table 5: K-562, CML, 72 h; AKR1C3 expression Low", "experimental": "as §1, §2"}, "PF-382 cell line": {"test_system": "PF-382 cell line", "test": "Ex vivo cytotoxicity assay, leukemia cell lines", "format": "cell-based", "conditions": "Homo sapiens", "experimental": "as §1, §2"}, "Jurkat cell line": {"test_system": "Jurkat cell line", "test": "Ex vivo cytotoxicity assay, leukemia cell lines", "format": "cell-based", "conditions": "Homo sapiens", "experimental": "as §1, §2"}, "[2]": {"test_system": "HL-60, clone 15 cell line", "test": "Ex vivo cytotoxicity assay, leukemia cell lines", "format": "cell-based", "conditions": "Homo sapiens; Table 5: HL-60, clone 15, APL, 72 h; AKR1C3 expression Low", "experimental": "as §1, §2"}, "MOLT-4 cell line": {"test_system": "MOLT-4 cell line", "test": "Ex vivo cytotoxicity assay, leukemia cell lines", "format": "cell-based", "conditions": "Homo sapiens", "experimental": "as §1, §2"}, "Reh cell line": {"test_system": "Reh cell line", "test": "Ex vivo cytotoxicity assay, leukemia cell lines", "format": "cell-based", "conditions": "Homo sapiens", "experimental": "as §1, §2"}, "THP-1 cell line": {"test_system": "THP-1 cell line", "test": "Ex vivo cytotoxicity assay, leukemia cell lines", "format": "cell-based", "conditions": "Homo sapiens; Table 5: THP-1, AML (pediatric), 72 h; AKR1C3 expression Low", "experimental": "as §1, §2"}, "P30/OHK cell line": {"test_system": "P30/OHK cell line", "test": "Ex vivo cytotoxicity assay, leukemia cell lines", "format": "cell-based", "conditions": "Homo sapiens; Table 5: P30/OHK, T-ALL (pediatric), 72 h; AKR1C3 expression Low", "experimental": "as §1, §2"}, "SUP-T1 cell line": {"test_system": "SUP-T1 cell line", "test": "Ex vivo cytotoxicity assay, leukemia cell lines", "format": "cell-based", "conditions": "Homo sapiens", "experimental": "as §1, §2"}, "Mono-Mac-6 cell line": {"test_system": "Mono-Mac-6 cell line", "test": "Ex vivo cytotoxicity assay, leukemia cell lines", "format": "cell-based", "conditions": "Homo sapiens; Table 5: Mono-Mac-6, AML-M5, 72 h; AKR1C3 expression Low", "experimental": "as §1, §2"}, "CCRF-CEM cell line": {"test_system": "CCRF-CEM cell line", "test": "Ex vivo cytotoxicity assay, leukemia cell lines", "format": "cell-based", "conditions": "Homo sapiens", "experimental": "as §1, §2"}, "GR-ST cell line": {"test_system": "GR-ST cell line", "test": "Ex vivo cytotoxicity assay, leukemia cell lines", "format": "cell-based", "conditions": "Homo sapiens, B-ALL (transfected with G-CSF)", "experimental": "as §1, §2"}, "KG-1 cell line": {"test_system": "KG-1 cell line", "test": "Ex vivo cytotoxicity assay, leukemia cell lines", "format": "cell-based", "conditions": "Homo sapiens; Table 5: KG-1, Erythroleukemia, 72 h; AKR1C3 expression High", "experimental": "as §1, §2"}, "[3]": {"test_system": "hepatocellular carcinoma cell lines", "test": "Ex vivo proliferation assay, group of hepatocellular carcinoma cell lines (summary)", "format": "cell-based, human", "experimental": "Exponentially growing cells were inoculated. After 24 h, the test compound OBI-3424 was added. After addition of the test compound OBI-3424, plates were incubated in a standard tissue incubator at 37° C. for the indicated hours. At the end of the experiment, viable cells were detected using the CellTiter Glo (CTG) assay kit or AlamarBlue. Drug concentrations (IC50) resulting in 50% growth inhibition relative to untreated control were calculated using XLfit (IDBS, Boston, MA) or Prism 6 (GraphPad, San Diego, CA).\nAfter exposing the hepatocellular carcinoma cell lines to compound OBI-3424 for 96 h and exposing the NSCLC cell lines to compound OBI-3424 for 72 h, the IC50 value was determined by ex vivo proliferation assay, and the expression of AKR1C3 protein in hepatocellular carcinoma cell lines was determined by Western blotting (tubulin was used as loading control). The expression data of AKR1C3 RNA in the hepatocellular carcinoma cell lines and in the NSCLC cell lines were from CrownBio database (https://db.crownbio.com/Crownbio/OncoExpress_Login.aspx).\nOn the other hand, cells expressing low AKR1C3 were less sensitive to OBI-3424, where IC50 values were higher than 1000 nM."}}, "data": [{"smiles": "C[C@H](OP(=O)(N1CC1)N1CC1)c1ccc([N+](=O)[O-])c(Oc2cccc(C(=O)N(C)C)c2)c1", "note": "[OBI-3424]", "values": [{"measurement": "IC50", "setting": "[1]; Table 4: Jurkat, Clone E6-1, T-ALL (child), AKR1C3 expression Medium, CellTiter-Glo", "result": 24, "unit": "nM"}, {"measurement": "IC50", "setting": "[1]; Table 5: Jurkat, clone E6-1, T-ALL, 72 h, AKR1C3 expression Low", "result": 24, "unit": "nM"}, {"measurement": "IC50", "setting": "P116 cell line; Table 4: P116, T-ALL (Jurkat mutant), AKR1C3 expression Medium, CellTiter-Glo", "result": 84, "unit": "nM"}, {"measurement": "IC50", "setting": "P116 cell line; Table 5: P116, Jurkat mutant, 72 h, AKR1C3 expression Low", "result": 84, "unit": "nM"}, {"measurement": "IC50", "setting": "P31/FUJ cell line", "result": "> 1000", "unit": "nM"}, {"measurement": "IC50", "setting": "NOMO-1 cell line; Table 4: NOMO-1, AML (acute monocytic), CellTiter-Glo", "result": 11, "unit": "nM"}, {"measurement": "IC50", "setting": "NOMO-1 cell line; Table 5: NOMO-1, T-ALL (adult), 72 h", "result": 11, "unit": "nM"}, {"measurement": "IC50", "setting": "Kasumi-1 cell line", "result": "> 1000", "unit": "nM"}, {"measurement": "IC50", "setting": "K-562 cell line", "result": "> 1000", "unit": "nM"}, {"measurement": "IC50", "setting": "PF-382 cell line; Table 4: PF-382, T-ALL (child), AKR1C3 expression Strong, CellTiter-Glo", "result": 15, "unit": "nM"}, {"measurement": "IC50", "setting": "PF-382 cell line; Table 5: PF-382, T-ALL (pediatric), 72 h, AKR1C3 expression Medium", "result": 15, "unit": "nM"}, {"measurement": "IC50", "setting": "Jurkat cell line; Table 4: Jurkat, T-ALL (child), AKR1C3 expression Medium, CellTiter-Glo", "result": 40, "unit": "nM"}, {"measurement": "IC50", "setting": "Jurkat cell line; Table 5: Jurkat, T-ALL (pediatric), 72 h, AKR1C3 expression Low", "result": 40, "unit": "nM"}, {"measurement": "IC50", "setting": "[2]", "result": 87, "unit": "nM"}, {"measurement": "IC50", "setting": "MOLT-4 cell line; Table 4: MOLT-4, T-ALL, AKR1C3 expression Strong, CellTiter-Glo", "result": 10, "unit": "nM"}, {"measurement": "IC50", "setting": "MOLT-4 cell line; Table 5: MOLT-4, T-ALL, 72 h, AKR1C3 expression Medium", "result": 10, "unit": "nM"}, {"measurement": "IC50", "setting": "Reh cell line; Table 4: Reh, BCP-ALL, AKR1C3 expression Medium, CellTiter-Glo", "result": 3, "unit": "nM"}, {"measurement": "IC50", "setting": "Reh cell line; Table 5: Reh, ALL (non-T, non-B), 72 h, AKR1C3 expression Low", "result": 3, "unit": "nM"}, {"measurement": "IC50", "setting": "THP-1 cell line", "result": "> 1000", "unit": "nM"}, {"measurement": "IC50", "setting": "P30/OHK cell line", "result": "> 1000", "unit": "nM"}, {"measurement": "IC50", "setting": "SUP-T1 cell line; Table 4: SUP-T1, T-ALL (child), AKR1C3 expression Strong, CellTiter-Glo", "result": 3, "unit": "nM"}, {"measurement": "IC50", "setting": "SUP-T1 cell line; Table 5: SUP-T1, T-ALL (pediatric), 72 h, AKR1C3 expression Medium", "result": 3, "unit": "nM"}, {"measurement": "IC50", "setting": "Mono-Mac-6 cell line", "result": 29.8, "unit": "nM"}, {"measurement": "IC50", "setting": "CCRF-CEM cell line; Table 4: CCRF-CEM, T-ALL (child), AKR1C3 expression Strong, CellTiter-Glo", "result": 3.7, "unit": "nM"}, {"measurement": "IC50", "setting": "CCRF-CEM cell line; Table 5: CCRF-CEM, T-ALL, 72 h, AKR1C3 expression High", "result": 3.7, "unit": "nM"}, {"measurement": "IC50", "setting": "GR-ST cell line; Table 4: GR-ST, AKR1C3 expression Strong, CellTiter-Glo", "result": 9.9, "unit": "nM"}, {"measurement": "IC50", "setting": "GR-ST cell line; Table 5: GR-ST, 72 h, AKR1C3 expression Medium", "result": 9.9, "unit": "nM"}, {"measurement": "IC50", "setting": "KG-1 cell line", "result": 153, "unit": "nM"}, {"measurement": "IC50", "setting": "[3]; Homo sapiens, cells expressing low AKR1C3", "result": "> 1000", "unit": "nM"}, {"measurement": "IC50 values", "setting": "[3]; hepatocellular carcinoma cell lines with high AKR1C3 expression at both protein and RNA levels", "result": "low nanomolar range"}]}]}
